Reference: patent US20120065170A1, “Antimicrobial Cyclocarbonyl Heterocyclic Compounds For Treatment Of Bacterial Infections” (priority 2010, published 2012)
Converted amounts (≈) assume the structure as drawn. Where two headings read alike, the source gives them in different places.

Experiments:
[1] = test system: linezolid-resistant E. faecalis; test: MIC against linezolid-resistant E. faecalis strains; format: cell-based, Enterococus faecalis; settings: one value per group of strains; for MIC: Enterococcus faecalis, read-out: E. faecalis (no. of strains) MIC
Excerpt: (§1) Compounds of this invention can have useful activity against a variety of pathogenic microorganisms. The in vitro activity of compounds of this invention can be assessed by standard testing procedures such as the determination of minimum inhibitory concentration (MIC) by agar dilution as described in “Approved Standard. Methods for Dilution Antimicrobial Susceptibility Tests for Bacteria That Grow Aerobically”, 3rd. ed., published 1993 by the National Committee for Clinical Laboratory Standards, Villanova, Pa., USA. Minimum inhibitory concentration (MIC) refers to the lowest concentration of drug (μg/mL) that inhibits visible growth of the organism. Lower MIC values indicate a higher antibacterial activity. Typically, compounds of the present invention have useful potency against Gram-positive or Gram-negative pathogens with MIC values of ≦8 μg/mL. To measure useful antibacterial activity against multiple bacterial isolates or strains, MIC90 (or minimal inhibitory concentration of the drug that inhibits visible growth of 90% of the microbes in each bacterial specie panel) is determined. Lower MIC number indicates an elevated degree of useful antibacterial activity, while higher MIC number indicates a reduced antibacterial activity. An agent with too high MIC against a bacterial pathogen can not be used for the treatment of infections caused by such microbial species.
(§2) The useful activity of representative compounds of the present invention against several isolates of linezolid-resistant Staphylococcus aureus, Enterococus faecalis and Enterococcu faecium illustrated by the MIC data of Table 2.

[2] = test system: linezolid-resistant E. faecium; test: MIC against linezolid-resistant E. faecium strains; format: cell-based, Enterococcus faecium; settings: one value per group of strains; for MIC: Enterococcus faecium, read-out: E. faecium (no. of strains) MIC
Excerpt: as §1, §2

H. influenzae = test: MIC against isolates of H. influenzae; format: cell-based, Haemophilus influenzae; settings: for MIC: Haemophilus influenzae
Excerpt: as §1
The useful activity of representative compounds of the present invention against several isolates of H. influenzae is illustrated by the MIC data of Table 3. H. influenzae is a fastidious Gram-negative pathogen implicated in multiple infections, including pneumonia and bacterial meningitis. No oxazolidinone agent is presently approved for the treatment of H. influenzae infections.

[3] = test system: key Gram-positive pathogens; test: MIC against key Gram-positive pathogens, further compounds (tests of Table 1); format: cell-based; settings: in the tests of Table 1
Excerpt: as §1
(§3) The useful activity of compounds of the present invention against an expanded set of clinical isolates of Staphylococcus aureus (including methicillin-resistant strain, MRSA), Enterococci (including Enterococcus faecalis and Enterococus faecium), and […] is illustrated by the MIC90 data in Table 1.

S. aureus = test: MIC90 against linezolid-susceptible clinical isolates of S. aureus; format: cell-based, Staphylococcus aureus; settings: for MIC90: Staphylococcus aureus, 34 strains, linezolid-susceptible, including MRSA
Excerpt: as §1, §3

Enterococci = test: MIC90 against linezolid-susceptible Enterococci; format: cell-based; settings: for MIC90: Enterococcus faecalis, 34 strains, linezolid-susceptible
Excerpt: as §1, §3

S. pneumoniae = test: MIC90 against linezolid-susceptible S. pneumoniae; format: cell-based, Streptococcus pneumoniae; settings: for MIC90: Streptococcus pneumoniae, read-out: S. pneumoniae (34 strains) MIC90
Excerpt: as §1, §3

[4] = test system: linezolid-resistant S. aureus; test: MIC against linezolid-resistant S. aureus strains; format: cell-based, Staphylococcus aureus; settings: one value per group of strains; for MIC: Staphylococcus aureus, read-out: S. aureus (no. of strains) MIC
Excerpt: as §1, §2

reticulocytes = test: 5-days mouse sub-acute toxicity test (myelosuppression, reticulocyte count); format: in vivo; settings: for Ratio for reticulocyte count relative to that for compound of Example 1 / fold drop in the reticulocyte cells counts compared to compound of Example 1: 37.5 mg/kg/day twice-daily, day 5
Protocol: The potential of representative compounds of this invention for myelosuppression has been evaluated in a 5-days mouse sub-acute toxicity test. For comparison purposes, Reference Compound 14 (Example 143 of publication US 2003/0166620) and Reference Compound 15 (TR-700 or torezolid; publications PCT WO2005/058886 and PCT WO2010/042887) have been included. The compounds were dosed to mice at 37.5 mg/kg/day on a twice-daily schedule. On day 5, blood was harvested for hematology testing. The toxicity was evaluated based on the reduction in the number of reticulocytes, previously described as the key marker for myelosuppression signs in pre-clinical testing of oxazolidinones, including linezolid. Thus, a higher degree of a reduction in the reticulocyte count is indicative of an elevated toxicity, while a lower drop in the reticulocyte count indicates a reduced propensity to the myelosuppression effect on the blood cells.

Haemophilus influenzae = settings: reported value; cited from earlier work
Staphylococcus species = settings: cited from earlier work
[5] = test system: linezolid-resistant bacterial strains; settings: cited from earlier work
[6] = one value per group of strains, read-out: H. influenzae (no. of strains) MIC
[7] = read-out: MIC values against H. influenzae as summarised in text, summary of Table 3
[8] = 34 strains, linezolid-susceptible
[9] = versus Reference Compound 15, Table 1 data
[10] = mice, 37.5 mg/kg/day on a twice-daily schedule, blood on day 5

| Compound | MIC [1] [µg/mL] | MIC [2] [µg/mL] | MIC (H. influenzae; [6]) [µg/mL] | MIC values compared to linezolid or Reference Compound 15 [3] | MIC90 (S. aureus) [µg/mL] | MIC90 (Enterococci) [µg/mL] | H. influenzae (no. of strains) MIC (H. influenzae; one value per group of strains) | Ratio for reticulocyte count relative to that for compound of Example 1 (reticulocytes; mice) | other results |
| --- | --- | --- | --- | --- | --- | --- | --- | --- | --- |
| O=C1O[C@@H](CO)CN1c1ccc(-c2ccc(N3CCCC3=O)nc2)c(F)c1 [Example 10] | 1 (≈ 2.69 µM) | 1 (≈ 2.69 µM) | 4 (≈ 10.8 µM) | lower range MIC values | – | – | – | – | E. faecalis (no. of strains) MIC [1]: 2 (3 strains) μg/mL; MIC (H. influenzae; [7]): < 4 µg/mL |
| O=C1O[C@@H](CO)CN1c1ccc(-c2ccc(N3CCOC3=O)nc2)cc1 [Example 13] | – | – | 4 (≈ 11.3 µM) | lower range MIC values | – | – | – | – | – |
| Cn1nnc(-c2ccc(-c3ccc(N4C[C@H](CO)OC4=O)cc3F)cn2)n1 [Ref. Cpd. 15, (5R)-3-[3-fluoro-4-[6-(2-methyltetrazol-5-yl)-3-pyridyl]phenyl]-5-(hydroxymethyl)oxazolidin-2-one] | 4 (≈ 10.8 µM) | 4 (≈ 10.8 µM) | > 16 | – | 0.5 (≈ 1.35 µM) | 0.5 (≈ 1.35 µM) | 8 (4 strains) μg/mL | 0.15 | MIC90 (S. pneumoniae): 0.25 µg/mL (≈ 0.675 µM); MIC [4]: 8 µg/mL (≈ 21.6 µM); S. aureus (no. of strains) MIC [4]: 4 (2 strains) μg/mL; E. faecium (no. of strains) MIC [2]: 2 (1 strain)^ μg/mL; fold drop in the reticulocyte cells counts compared to compound of Example 1 (reticulocytes; mice): ~2.6 fold; Reticulocyte count on Day 5, cell count (reticulocytes; mouse, in vivo, 37.5 mg/kg/day, 5 days): 1.91e+10 L⁻¹ |
| CC(=O)NC[C@H]1CN(c2ccc(N3CCOCC3)c(F)c2)C(=O)O1 [Linezolid, linezolid] | 16 (≈ 47.4 µM) | 16 (≈ 47.4 µM) | 8 (≈ 23.7 µM) | – | 2 (≈ 5.93 µM) | 2 (≈ 5.93 µM) | 16 (2 strains) μg/mL | – | MIC90 (S. pneumoniae; [8]): 1 µg/mL (≈ 2.96 µM); MIC [4]: 16 µg/mL (≈ 47.4 µM); S. aureus (no. of strains) MIC [4]: >16 (3 strains) μg/mL; MIC90 against Haemophilus influenzae (typical) (Haemophilus influenzae): 16 µg/mL (≈ 47.4 µM); MIC against Staphylococci species (such as S. aureus) (Staphylococcus species; generally displayed): 2 to 4 µg/mL; useful MIC90 against Gram-positive Staphylococcus species (Staphylococcus species; species for which the drug is indicated): 2 to 4 µg/mL; MICs against linezolid-resistant bacterial strains [5]: ≥ 8 µg/mL |
| O=C1O[C@@H](CO)CN1c1ccc(-c2ccc(N3CCOC3=O)nc2)c(F)c1 [Example 1] | 0.5 (≈ 1.34 µM) | 0.5 (≈ 1.34 µM) | 2 (≈ 5.36 µM) | – | 0.125 (≈ 0.335 µM) | 0.25 (≈ 0.67 µM) | 4 (1 strain)^ μg/mL | 1 | MIC90 fold lower than Reference Compound 15, S. aureus (S. aureus; [9]): about 4 fold; MIC90 fold lower than linezolid, S. aureus (S. aureus; versus linezolid, Table 1 data): about 16 fold; MIC90 fold lower than Reference Compound 15, Enterococci species (Enterococci; [9]): ~2 fold; MIC90 fold lower than linezolid, Enterococci species (Enterococci; versus linezolid, Table 1 data): ~8 fold; MIC90 (S. pneumoniae; [8]): 0.06 µg/mL (≈ 0.161 µM); MIC90 fold lower than Reference Compound 15, S. pneumoniae (S. pneumoniae; [9]): about 4 fold; MIC90 fold lower than linezolid, S. pneumoniae (S. pneumoniae; versus linezolid, Table 1 data): about 16 fold; E. faecalis (no. of strains) MIC [1]: 1 (3 strains) μg/mL; MIC (H. influenzae; [7]): < 4 µg/mL; Reticulocyte count on Day 5, cell count (reticulocytes; [10]): 1.275e+11 L⁻¹ |
| CC(=O)NC[C@H]1CN(c2ccc(-c3ccc(N4CCOC4=O)nc3)c(F)c2)C(=O)O1 [Ref. Cpd. 14, N-[[(5S)-3-[3-fluoro-4-[6-(2-oxooxazolidin-3-yl)-3-pyridyl]phenyl]-2-oxo-oxazolidin-5-yl]methyl]acetamide] | – | – | – | – | – | – | – | 0.39 | Reticulocyte count on Day 5, cell count (reticulocytes; [10]): 5e+10 L⁻¹; fold drop in the reticulocyte cells counts compared to compound of Example 1 (reticulocytes; mice): ~2.6 fold |
| O=C1O[C@@H](CO)CN1c1ccc(-c2ccc(N3CCNC3=O)nc2)c(F)c1 [Example 7] | – | 0.5 (≈ 1.34 µM) | – | lower range MIC values | – | – | – | – | E. faecium (no. of strains) MIC [2]: 1 (4 strains) μg/mL |
